Molecular target: Synaptic vesicular amine transporter (Homo sapiens) (UniProt Q05940)
Assay: SLC18A2 vesicular uptake inhibitors, dose response (AID 1794817)
Settings: HEK-293 SLC18A2 OE, FFN206 uptake fluorescence

Synaptic vesicular amine transporter (Homo sapiens), sequence (Q05940 whole entry, looked up): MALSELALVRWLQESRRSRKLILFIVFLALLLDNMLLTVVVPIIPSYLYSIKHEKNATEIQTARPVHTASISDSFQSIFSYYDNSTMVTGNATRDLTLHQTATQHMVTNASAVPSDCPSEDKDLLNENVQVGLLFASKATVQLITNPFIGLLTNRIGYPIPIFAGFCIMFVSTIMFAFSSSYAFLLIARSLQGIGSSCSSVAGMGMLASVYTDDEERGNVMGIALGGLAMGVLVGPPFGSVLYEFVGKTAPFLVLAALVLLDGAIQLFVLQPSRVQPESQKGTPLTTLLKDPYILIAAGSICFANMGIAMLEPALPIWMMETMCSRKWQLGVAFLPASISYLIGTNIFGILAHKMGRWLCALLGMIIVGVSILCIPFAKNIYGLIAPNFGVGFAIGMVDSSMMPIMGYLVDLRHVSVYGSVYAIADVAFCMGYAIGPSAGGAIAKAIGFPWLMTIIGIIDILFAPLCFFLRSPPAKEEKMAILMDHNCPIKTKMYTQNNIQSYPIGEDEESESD

Work on `CNc1ccc2c(CCN)cc(=O)oc2c1` yielded an IC50 of 3560 nM.

Compound `COc1cc2c(cc1OC)C1CC(=O)C(CC(C)C)CN1CC2` (configuration not stated) has an IC50 of 19.8 nM.

From PubChem BioAssay AID1794817
